This is an account of results in US12344610B2, “APOL1 inhibitors and methods of use” (Maze Therapeutics, Inc., priority 2022, dated 2025).

Assay [1] has as its system HEK293 cells overexpressing APOL1 G2. Kind of assay: APOL1 G2 HEK293 cell rescue assay (reversal of cell death caused by overexpression of APOL1). The settings on record: Homo sapiens, HEK293, HEK293 overexpressing APOL1 G2; geometric mean of at least 2 assay runs; † = single assay run. Format: cell-based. A digest of the protocol: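 EC50 is the half-maximal effective concentration for reversing cell death driven by APOL1 G2 overexpression in HEK293 cells. Reported as geometric mean of at least 2 runs on separate days, each run averaging duplicate wells per plate; some values from a single run.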

Assay [2] relates to Trypanosoma brucei Lister 427 VSG221 with APOL1 G1 recombinant protein. Kind of assay: APOL1 G1 trypanosome cell rescue assay (Example B5). In kind it is cell-based. The following applies: Trypanosoma brucei, 20 h, read-out: APOL1 G1 Trypanosome Rescue EC50, Trypanosoma brucei Lister 427 VSG221 with APOL1 G1 recombinant protein, 20 hours, CellTiter-Glo; geometric mean of at least 2 assay runs; † = single assay run. A digest of the protocol: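 Recombinant mature APOL1 (residues 28-398, His-tag removed, E. coli-expressed, refolded from inclusion bodies, DDM buffer) at […] added with 250 trypanosomes/well in modified HMI-9 media. Duplicate 11-point 2-fold compound series, 0.4% DMSO; 20 h at 37° C, 5% CO2, then CellTiter-Glo luminescence for viability.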

What is called EC50 is the midpoint of the concentration-response curve. As for `CNC(=O)N1CCc2cc(OCCN3CCC4(CC3)C(=O)Nc3ccc(Cl)cc34)ccc2C1` [Compound 245, 6-(2-{5-chloro-2-oxo-1,2-dihydrospiro[indole-3,4′-piperidin]-1′-yl}ethoxy)-N-methyl-1,2,3,4-tetrahydroisoquinoline-2-carboxamide], the EC50 in assay [1] is 139 nM; in assay [2], 379 nM.
For `Cn1c(=O)[nH]c2cc(OCCN3CCC4(CC3)C(=O)Nc3ccc(Cl)cc34)cnc21` [Compound 247, 5-chloro-1′-[2-({3-methyl-2-oxo-1H,2H,3H-imidazo[4,5-b]pyridin-6-yl}oxy)ethyl]-1,2-dihydrospiro[indole-3,4′-piperidin]-2-one], in that order: 92 nM and 246 nM.
For `O=C1Nc2ccc(Cl)cc2C12CCN(CCOc1ccc(S(=O)(=O)C3(CO)CC3)nc1)CC2` [Compound 248, 5-chloro-1′-{2-[(6-{[1-(hydroxymethyl)cyclopropyl]sulfonyl}pyridin-3-yl)oxy]ethyl}-1,2-dihydrospiro[indole-3,4′-piperidin]-2-one], in that order: 58.4 nM and 126 nM.
For `NC(=O)c1ccc(OCCN2CCC3(CC2)C(=O)Nc2ccc(Cl)cc23)cc1C(F)F` [Compound 249, 4-(2-{5-chloro-2-oxo-1,2-dihydrospiro[indole-3,4′-piperidin]-1′-yl}ethoxy)-2-(difluoromethyl)benzamide], in that order: 26.8 nM and 73.8 nM.
As to `N#Cc1ccc2c(c1)C1(CCN(CCOc3ccc(C(N)=O)c(C(F)F)c3)CC1)C(=O)N2` [Compound 250, 4-(2-{5-cyano-2-oxo-1,2-dihydrospiro[indole-3,4′-piperidin]-1′-yl}ethoxy)-2-(difluoromethyl)benzamide], the EC50 in assay [1] was 49.2 nM; in assay [2], 678 nM.
For `CN1C(=O)C2(CCN(CCOc3ccc(C4(S(C)(=O)=O)COC4)cc3)CC2)c2cc(C#N)ccc21` [Compound 251, 1′-{2-[4-(3-methanesulfonyloxetan-3-yl)phenoxy]ethyl}-1-methyl-2-oxo-1,2-dihydrospiro[indole-3,4′-piperidine]-5-carbonitrile], the EC50 in assay [1] was determined as 125 nM; in assay [2] it was 1120 nM.
As to `CN(C)C(=O)C1(c2ccc(OCCN3CCC4(CC3)C(=O)Nc3ccc(C#N)cc34)cc2)COC1` [Compound 254, 3-[4-(2-{5-cyano-2-oxo-1,2-dihydrospiro[indole-3,4′-piperidin]-1′-yl}ethoxy)phenyl]-N,N-dimethyloxetane-3-carboxamide], the EC50 in assay [1] came to 175 nM; in assay [2] it was 951 nM.
For `CNC(=O)C1(c2ccc(OCCN3CCC4(CC3)C(=O)Nc3ccc(C#N)cc34)cc2)COC1` [Compound 255, 3-[4-(2-{5-cyano-2-oxo-1,2-dihydrospiro[indole-3,4′-piperidin]-1′-yl}ethoxy)phenyl]-N-methyloxetane-3-carboxamide], in that order: 353 nM and 2920 nM.
In the same order, the values of `O=C(c1c(F)cc(OCCN2CCC3(CC2)C(=O)Nc2ccc(Cl)cc23)cc1F)N1CCS(=O)(=O)CC1` [Compound 259, 4-[4-(2-{5-chloro-2-oxo-1,2-dihydrospiro[indole-3,4′-piperidin]-1′-yl}ethoxy)-2,6-difluorobenzoyl]-1λ^6-thiomorpholine-1,1-dione] are 37.5 nM and 92.2 nM.
For `CN1C(=O)C2(CCN(CCOc3cc(F)c(C(=O)N4CCS(=O)(=O)CC4)c(F)c3)CC2)c2cc(C#N)ccc21` [Compound 260, 1′-{2-[4-(1,1-dioxo-1λ^6-thiomorpholine-4-carbonyl)-3,5-difluorophenoxy]ethyl}-1-methyl-2-oxo-1,2-dihydrospiro[indole-3,4′-piperidine]-5-carbonitrile], in that order: 119 nM and 397 nM.
Regarding `CN1C(=O)C2(CCN(CCOc3ccc(C(=O)N4CCS(=O)(=O)CC4)c(C(F)(F)F)c3)CC2)c2cc(C#N)ccc21` [Compound 261, 1′-{2-[4-(1,1-dioxo-1λ^6-thiomorpholine-4-carbonyl)-3-(trifluoromethyl)phenoxy]ethyl}-1-methyl-2-oxo-1,2-dihydrospiro[indole-3,4′-piperidine]-5-carbonitrile], the EC50 in assay [1] was 89 nM; in assay [2] it was 100 nM.
As to `CS(=O)(=O)c1ccc(OCCN2CCC3(CC2)C(=O)N(CCO)c2ccc(Cl)cc23)cc1C(F)F` [Compound 265, 5-chloro-1′-{2-[3-(difluoromethyl)-4-methanesulfonylphenoxy]ethyl}-1-(2-hydroxyethyl)-1,2-dihydrospiro[indole-3,4′-piperidin]-2-one], the EC50 in assay [1] was found to be 30 nM; in assay [2], 105 nM.
For `CS(=O)(=O)c1ccc(OCCN2CCC3(CC2)C(=O)N(CCO)c2ccc(C#N)cc23)cc1C(F)F` [Compound 266, 1′-{2-[3-(difluoromethyl)-4-methanesulfonylphenoxy]ethyl}-1-(2-hydroxyethyl)-2-oxo-1,2-dihydrospiro[indole-3,4′-piperidine]-5-carbonitrile], in that order: 104 nM and 407 nM.
Regarding `O=C(c1ccc(OCCN2CCC3(CC2)C(=O)Nc2ccc(Cl)cc23)cc1C(F)(F)F)N1CCS(=O)(=O)CC1` [Compound 272, 4-[4-(2-{5-chloro-2-oxo-1,2-dihydrospiro[indole-3,4′-piperidin]-1′-yl}ethoxy)-2-(trifluoromethyl)benzoyl]-1λ^6-thiomorpholine-1,1-dione], the EC50 in assay [1] amounted to 93.4 nM; in assay [2], 73.2 nM.
In the same order, the values of `CS(=O)(=O)N1CC2(CN(C(=O)c3ccc(OCCN4CCC5(CC4)C(=O)Nc4ccc(Cl)cc45)cc3F)C2)C1` [Compound 273, 5-chloro-1′-[2-(3-fluoro-4-{6-methanesulfonyl-2,6-diazaspiro[3.3]heptane-2-carbonyl}phenoxy)ethyl]-1,2-dihydrospiro[indole-3,4′-piperidin]-2-one] are 88.5 nM and 71.6 nM.
In the same order, the values of `C[C@]1(O)C[C@@H](N2C(=O)CCc3cc(OCCN4CCC5(CC4)C(=O)Nc4ccc(C(F)F)cc45)cnc32)C1` [Compound 274, 5-(difluoromethyl)-1′-[2-({7-oxo-8-[(cis)-3-hydroxy-3-methylcyclobutyl]-5,6,7,8-tetrahydro-1,8-naphthyridin-3-yl}oxy)ethyl]-1,2-dihydrospiro[indole-3,4′-piperidin]-2-one] are 34 nM and 58.4 nM.
In the same order, the values of `C[C@]1(O)C[C@@H](N2C(=O)CCc3cc(OCCN4CCC5(CC4)C(=O)Nc4ccc(Cl)cc45)cnc32)C1` [Compound 275, 5-chloro-1′-[2-({7-oxo-8-[(cis)-3-hydroxy-3-methylcyclobutyl]-5,6,7,8-tetrahydro-1,8-naphthyridin-3-yl}oxy)ethyl]-1,2-dihydrospiro[indole-3,4′-piperidin]-2-one] are 27 nM and 73.6 nM.
`CS(=O)(=O)C1(c2ncc(OCCN3CCC4(CC3)C(=O)Nc3ccc(Cl)cc34)cn2)COC1` [Compound 276, 5-chloro-1′-(2-{[2-(3-methanesulfonyloxetan-3-yl)pyrimidin-5-yl]oxy}ethyl)-1,2-dihydrospiro[indole-3,4′-piperidin]-2-one]: the concentration giving a half-maximal response (EC50) amounted to 101 nM in assay [1] and 185 nM in assay [2].
Consider `CS(=O)(=O)C1(c2ncc(OCCN3CCC4(CC3)C(=O)Nc3ccc(C#N)cc34)cc2F)CC1` [Compound 283, 1′-(2-{[5-fluoro-6-(1-methanesulfonylcyclopropyl)pyridin-3-yl]oxy}ethyl)-2-oxo-1,2-dihydrospiro[indole-3,4′-piperidine]-5-carbonitrile], for which the EC50 was determined as 99 nM in assay [1] and 235 nM in assay [2].
For `CC(O)c1ncc(OCCN2CCC3(CC2)C(=O)Nc2ccc(Cl)cc23)cn1` (stereo not drawn) [Compound 284, 5-chloro-1′-(2-{[2-(1-hydroxyethyl)pyrimidin-5-yl]oxy}ethyl)-1,2-dihydrospiro[indole-3,4′-piperidin]-2-one], in that order: 199 nM and 943 nM.
As to `C[C@]1(O)C[C@@H](N2C(=O)OCc3cc(OCCN4CCC5(CC4)C(=O)Nc4ccc(Cl)cc45)cnc32)C1` [Compound 289, 5-chloro-1′-[2-({2-oxo-1-[(cis)-3-hydroxy-3-methylcyclobutyl]-1H,2H,4H-pyrido[2,3-d][1,3]oxazin-6-yl]oxy)ethyl]-1,2-dihydrospiro[indole-3,4′-piperidin]-2-one], the EC50 in assay [1] came to 16.7 nM; in assay [2], 51.9 nM.
For `CC1(O)CN(c2ncc(OCCN3CCC4(CC3)C(=O)Nc3ccc(Cl)cc34)cn2)C1` [Compound 300, 5-chloro-1′-(2-{[2-(3-hydroxy-3-methylazetidin-1-yl)pyrimidin-5-yl]oxy}ethyl)-1,2-dihydrospiro[indole-3,4′-piperidin]-2-one], in that order: 100 nM and 543 nM.
For `O=C1Nc2ccc(Cl)cc2C12CCN(CCOc1cnc(N3CC(O)C3)nc1)CC2` [Compound 301, 5-chloro-1′-(2-{[2-(3-hydroxyazetidin-1-yl)pyrimidin-5-yl]oxy}ethyl)-1,2-dihydrospiro[indole-3,4′-piperidin]-2-one], in that order: 86 nM and 447 nM.
In the same order, the values of `CS(=O)(=O)C1CN(c2ncc(OCCN3CCC4(CC3)C(=O)Nc3ccc(Cl)cc34)cn2)C1` [Compound 302, 5-chloro-1′-(2-{[2-(3-methanesulfonylazetidin-1-yl)pyrimidin-5-yl]oxy}ethyl)-1,2-dihydrospiro[indole-3,4′-piperidin]-2-one] are 98.1 nM and 498 nM.
